This is an account of results in US7718809B2, “Chromane substituted benzimidazole derivatives as acid pump antagonists” (RaQualia Pharma Inc., priority 2005, dated 2010).

pIC50: −log10 of the molar value.

For orientation: pIC50 means the IC50 on a negative log10 scale, so that one unit is a factor of ten. A higher pIC50 goes with a low IC50.

T1 sequence (P19156 2-1034 limits assumed): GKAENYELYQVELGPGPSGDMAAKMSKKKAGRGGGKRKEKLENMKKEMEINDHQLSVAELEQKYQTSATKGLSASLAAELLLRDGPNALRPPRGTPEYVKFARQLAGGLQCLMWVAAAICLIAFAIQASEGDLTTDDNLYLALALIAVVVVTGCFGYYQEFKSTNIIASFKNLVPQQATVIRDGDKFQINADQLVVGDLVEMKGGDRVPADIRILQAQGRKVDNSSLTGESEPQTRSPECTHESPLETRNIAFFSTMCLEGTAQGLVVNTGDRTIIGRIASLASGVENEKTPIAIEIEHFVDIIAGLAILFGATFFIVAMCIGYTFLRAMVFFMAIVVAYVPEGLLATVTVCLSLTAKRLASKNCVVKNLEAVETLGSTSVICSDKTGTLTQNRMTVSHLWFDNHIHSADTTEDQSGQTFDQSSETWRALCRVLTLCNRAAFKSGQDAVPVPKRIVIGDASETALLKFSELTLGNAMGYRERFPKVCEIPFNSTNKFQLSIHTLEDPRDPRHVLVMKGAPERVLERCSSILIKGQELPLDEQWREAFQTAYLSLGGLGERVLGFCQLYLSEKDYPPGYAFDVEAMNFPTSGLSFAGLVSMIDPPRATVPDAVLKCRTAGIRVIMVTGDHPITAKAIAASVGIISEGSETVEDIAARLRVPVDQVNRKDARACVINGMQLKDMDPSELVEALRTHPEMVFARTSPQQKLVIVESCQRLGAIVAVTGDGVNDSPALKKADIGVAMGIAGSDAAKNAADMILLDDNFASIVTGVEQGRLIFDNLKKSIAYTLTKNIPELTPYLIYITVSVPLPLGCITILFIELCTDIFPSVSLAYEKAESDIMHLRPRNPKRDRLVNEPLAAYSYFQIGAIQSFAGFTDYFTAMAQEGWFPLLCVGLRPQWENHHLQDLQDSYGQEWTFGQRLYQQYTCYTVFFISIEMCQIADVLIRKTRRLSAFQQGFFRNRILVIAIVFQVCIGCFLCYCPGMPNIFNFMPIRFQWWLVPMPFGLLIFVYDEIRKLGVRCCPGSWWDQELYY
T1 sequence (P18434 whole entry partner): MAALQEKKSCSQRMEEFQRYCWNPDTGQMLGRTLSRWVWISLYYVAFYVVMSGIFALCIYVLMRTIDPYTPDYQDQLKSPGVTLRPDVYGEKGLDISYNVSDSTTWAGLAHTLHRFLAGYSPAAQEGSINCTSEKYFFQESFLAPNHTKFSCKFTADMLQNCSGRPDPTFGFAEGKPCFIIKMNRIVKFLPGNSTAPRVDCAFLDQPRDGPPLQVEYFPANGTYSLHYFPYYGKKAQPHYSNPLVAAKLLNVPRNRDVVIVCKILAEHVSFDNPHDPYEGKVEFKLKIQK

One assay has as its target T1, porcine gastric H+/K+-ATPase (Sus scrofa, UniProt P19156).
T1 construct: prepared from mucous membrane in fresh porcine stomachs by homogenization; from tissue; host or cells: mucous membrane of fresh porcine stomachs (gastric vesicles)
Kind of assay: Ion-tight porcine gastric H+/K+-ATPase inhibition. Format: biochemical. Conditions: ion-tight gastric vesicles, 150 mM KCl, valinomycin, pH 7.4, 37° C. The procedure:
The porcine gastric vesicles for Porcine gastric H^+/K^+-ATPase inhibition assays were prepared from mucous membrane in fresh porcine stomachs by homogenization with a tight-fitted polytetrafluoroethylene (Teflone®) homogenizer in 0.25 M sucrose at 4° C. The crude pellet was removed with centrifugation at 20,000 g for 30 min. Then supernatant was centrifuged at 100,000 g for 30 min. The resulting pellet was re-suspended in 0.25 M sucrose, and then subjected to density gradient centrifugation at 132,000 g for 90 min. The gastric vesicles were collected from interface on 0.25 M sucrose layer containing 7% Ficoll™ PM400(Amersham Biosciences). This procedure was performed in a cold room.
Ion-tight porcine gastric H^+/K^+-ATPase inhibition was measured according to the modified method described in Biochemical Pharmacology, 1988, 37, 2231-2236.
The isolated vesicles were kept in deep-freezer until use. For enzyme assay, vesicles were diluted with 3 mM MgSO4 containing 5 mM Tris (pH 7.4 at 37° C).
Enzyme reaction was performed incubating 150 mM KCl, 3 mM Na2ATP, 3 mM MgSO4, 15 μM valinomycin and 3.0 μg of vesicles for 30 minutes at 37° C. in a final 60 μl of reaction mixture (5 mM Tris, pH 7.4) with or without the test compound. Enzyme reaction was stopped by adding 10% SDS. Released inorganic phosphate from ATP was detected by incubating with mixture of 1 part of 35 mM ammonium molybdate tetrahydrate in 15 mM Zinc acetate hydrate and 4 parts of 10% ascorbic acid (pH 5.0), resulting in phosphomolybdate, which has optical density at 750 nm.
In turn, `Cc1nc2c(OC3CCOc4cc(F)ccc43)cc(C(=O)N(C)C)cc2n1C` (racemic) [Example 2, 4-[(7-Fluoro-3,4-dihydro-2H-chromen-4-yl)oxy]-N,N,1,2-tetramethyl-1H-benzimidazole-6-carboxamide] showed a pIC50 of 7.16.

In turn, `Cc1nc2c(OC3CCOc4cc(F)cc(F)c43)cc(C(=O)N(C)C)cc2n1C` (racemic) [Example 5, 4-[(5,7-Difluoro-3,4-dihydro-2H-chromen-4-yl)oxy]-N,N,1,2-tetramethyl-1H-benzimidazole-6-carboxamide] had a negative logarithm of the IC50 (pIC50) of 7.05.

`Cc1nc2c(OC3CCOc4cccc(F)c43)cc(C(=O)N(C)C)cc2n1C` (racemic) [Example 9, 4-[(5-Fluoro-3,4-dihydro-2H-chromen-4-yl)oxy]-N,N,1,2-tetramethyl-1H-benzimidazole-6-carboxamide] showed a pIC50 of 6.02. Against the preceding compound, the pIC50 is 1.03 log units lower.

For the compound `CNC(=O)c1cc(OC2CCOc3cc(F)cc(F)c32)c2nc(C)n(C)c2c1` (racemic) [Example 19, 4-[(5,7-Difluoro-3,4-dihydro-2H-chromen-4-yl)oxy]-N,1,2-trimethyl-1H-benzimidazole-6-carboxamide], the negative-log IC50 (pIC50) is 6.17.

In turn, `Cc1nc2c(OC3CCOc4cc(F)cc(F)c43)cc(C(=O)N3CCC3)cc2n1C` (racemic) [Example 22, 6-(Azetidin-1-ylcarbonyl)-4-[(5,7-difluoro-3,4-dihydro-2H-chromen-4-yl)oxy]-1,2-dimethyl-1H-benzimidazole] gave a pIC50 of 6.74.

`Cc1nc2c(OC3CCOc4cc(F)ccc43)cc(C(=O)N(C)C)cc2n1C` (single isomer, unassigned; (+)) [Example 4, (+)-4-[(7-Fluoro-3,4-dihydro-2H-chromen-4-yl)oxy]-N,N,1,2-tetramethyl-1H-benzimidazole-6-carboxamide] gave a pIC50 of 6.36.

Compound `Cc1nc2c(OC3CCOc4cc(F)cc(F)c43)cc(C(=O)N(C)C)cc2n1C` (single isomer, unassigned; (+)) [Example 7, (+)-4-[(5,7-Difluoro-3,4-dihydro-2H-chromen-4-yl)oxy]-N,N,1,2-tetramethyl-1H-benzimidazole-6-carboxamide] showed a pIC50 of 6.66.

In turn, `Cc1nc2c(OC3CCOc4cccc(F)c43)cc(C(=O)N(C)C)cc2n1C` (single isomer, unassigned; (+)) [Example 18, (+)-4-{[5-Fluoro-3,4-dihydro-2H-chromen-4-yl]oxy}-N,N,1,2-tetramethyl-1H-benzimidazole-6-carboxamide] showed a pIC50 of 6.62.

With `CNC(=O)c1cc(OC2CCOc3cc(F)cc(F)c32)c2nc(C)n(C)c2c1` (single isomer, unassigned; (+)) [Example 21, (+)-4-[(5,7-Difluoro-3,4-dihydro-2H-chromen-4-yl)oxy]-N,1,2-trimethyl-1H-benzimidazole-6-carboxamide], the pIC50 is 6.31.

`Cc1nc2c(OC3CCOc4cc(F)cc(F)c43)cc(C(=O)N3CCC3)cc2n1C` (single isomer, unassigned; (+)) [Example 24, (+)-6-(Azetidin-1-ylcarbonyl)-4-[(5,7-difluoro-3,4-dihydro-2H-chromen-4yl)oxy]-1,2-dimethyl-1H-benzimidazole] had a pIC50 of 6.21. The pIC50 values of the last two compounds are within 0.2 log units of each other.

Compound `Cc1nc2c(OC3CCOc4cc(F)ccc43)cc(C(=O)N(C)C)cc2n1C` (single isomer, unassigned; (-)) [Example 3, (−)-4-[(7-Fluoro-3,4-dihydro-2H-chromen-4-yl)oxy]-N,N,1,2-tetramethvl-1H-benzimidazole-6-carboxamide] showed a negative-log IC50 (pIC50) of 6.36. The pIC50 values of the last two compounds are within 0.2 log units of each other.

`Cc1nc2c(OC3CCOc4cc(F)cc(F)c43)cc(C(=O)N(C)C)cc2n1C` (single isomer, unassigned; (-)) [Example 6, (−)-4-[(5,7-Difluoro-3,4-dihydro-2H-chromen-4-yl)oxy]-N,N,1,2-tetramethyl-1H-benzimidazole-6-carboxamide] had a pIC50 of 6.68.

As for `Cc1nc2c(OC3CCOc4cccc(F)c43)cc(C(=O)N(C)C)cc2n1C` (single isomer, unassigned; (-)) [Example 17, (−)-4-{[5-Fluoro-3,4-dihydro-2H-chromen-4-yl]oxy}-N,N,1,2-tetramethyl-1H-benzimidazole-6-carboxamide], the pIC50 was 6.47.

In turn, `CNC(=O)c1cc(OC2CCOc3cc(F)cc(F)c32)c2nc(C)n(C)c2c1` (single isomer, unassigned; (-)) [Example 20, (−)-4-[(5,7-Difluoro-3,4-dihydro-2H-chromen-4-yl)oxy]-N,1,2-trimethyl-1H-benzimidazole-6-carboxamide] had a pIC50 of 6.21.

For the compound `Cc1nc2c(OC3CCOc4cc(F)cc(F)c43)cc(C(=O)N3CCC3)cc2n1C` (single isomer, unassigned; (-)) [Example 23, (−)-6-(Azetidin-1-ylcarbonyl)-4-[(5,7-difluoro-3,4-dihydro-2H-chromen-4-yl)oxy]-1,2-dimethyl-1H-benzimidazole], the pIC50 is 6.36. This pIC50 and that of the compound before are within 0.2 log units of each other.

As to `Cc1nc2c(OC3CCOc4ccccc43)cc(C(=O)N(C)C)cc2n1C` (stereo not drawn) [Example 1, 4-(3,4-Dihydro-2H-chromen-4-yloxy)-N,N,1,2-tetramethyl-1H-benzimidazole-6-carboxamide], the pIC50 is 6.25.

On to `Cc1cccc2c1C(Oc1cc(C(=O)N(C)C)cc3c1nc(C)n3C)CCO2` (stereo not drawn) [Example 8, N,N,1,2-Tetramethyl-4-[(5-methyl-3,4-dihydro-2H-chromen-4-yl)oxy]-1H-benzimidazole-6-carboxamide], for which the pIC50 is 6.74.

In turn, `Cc1nc2c(OC3COCc4ccccc43)cc(C(=O)N(C)C)cc2n1C` (stereo not drawn) [Example 10, 4-(3,4-Dihydro-1H-isochromen-4-yloxy)-N,N,1,2-tetramethvl-1H-benzimidazole-6-carboxamide] showed a pIC50 of 6.49. This pIC50 is 0.25 log units lower than that of the compound before.

Compound `Cc1nc2c(OC3CCOc4ccccc43)cc(C(=O)N(C)CCO)cc2n1C` (stereo not drawn) [Example 11, 4-(3,4-Dihydro-2H-chromen-4-yloxy)-N-(2-hydroxyethyl)-N,1,2-trimethyl-1H-benzimidazole-6-carboxamide] gave a pIC50 of 6.37. The pIC50 values of the last two compounds are within 0.2 log units of each other.

`Cc1nc2c(OC3CCOc4ccccc43)cc(C(=O)N3CC[C@H](O)C3)cc2n1C` (stereo partly drawn) [Example 12, (3S)-1-{[4-(3,4-Dihydro-2H-chromen-4-yloxy)-1,2-dimethyl-1H-benzimidazol-6-yl]carbonyl}pyrrolidin-3-ol]: the pIC50 was 6.17.

`Cc1nc2c(OC3CCOc4ccccc43)cc(C(=O)N3CC[C@@H](O)C3)cc2n1C` (stereo partly drawn) [Example 13, (3R)-1-{[4-(3,4-Dihydro-2H-chromen-4-yloxy)-1,2-dimethyl-1H-benzimidazol-6-yl]carbonyl}pyrrolidin-3-ol] showed a pIC50 of 6.92.

`Cc1nc2c(OC3CCOc4ccccc43)cc(C(=O)N3CCC[C@@H]3CO)cc2n1C` (stereo partly drawn) [Example 14] gave a pIC50 of 6.01.

`Cc1nc2c(OC3CCOc4ccccc43)cc(C(=O)N3CCN(C)CC3)cc2n1C` (stereo not drawn) [Example 15, 4-(3,4-Dihydro-2H-chromen-4-yloxy)-1,2-dimethyl-6-[(4-methylpiperazin-1-yl)carbonyl]-1H-benzimidazole]: the pIC50 was 6.02.

The compound `CC(=O)N1CCN(C(=O)c2cc(OC3CCOc4ccccc43)c3nc(C)n(C)c3c2)CC1` (stereo not drawn) [Example 16, 6-[(4-Acetylpiperazin-1-yl)carbonyl]-4-(3,4-dihydro-2H-chromen-4-yloxy)-1,2-dimethyl-1H-benzimidazole] showed a negative logarithm of the IC50 (pIC50) of 6.85.

With `Cc1nc2c(OC3CCOc4cc(F)cc(F)c43)cc(C(=O)N3CCCC3)cc2n1C` (stereo not drawn) [Example 25, 4-[(5,7-Difluoro-3,4-dihydro-2H-chromen-4-yl)oxy]-1,2-dimethyl-6-(pyrrolidin-1-ylcarbonyl)-1H-benzimidazole], the pIC50 was 6.23.

As to `Cc1nc2c(OC3CCOc4cc(F)cc(F)c43)cc(C(=O)N3CC(C)(O)C3)cc2n1C` (stereo not drawn) [Example 26, 1-({4-[(5,7-Difluoro-3,4-dihydro-2H-chromen-4-yl)oxy]-1,2-dimethyl-1H-benzimidazol-6-yl}carbonyl)-3-methylazetidin-3-ol], the negative-log IC50 (pIC50) is 6.32. The pIC50 values of the last two compounds are within 0.2 log units of each other.

In a further assay the test system is gastric acid secretion. Description: Inhibition of gastric acid secretion in the Heidenhain pouch dog. Format: in vivo, Beagle dogs. The following applies: histamine-stimulated (80 μg/kg/h) acid secretion, oral or intravenous bolus administration. Here is the method:
Male Beagle dogs weighing 7-15 kg with Heidenhain pouch [Heidenhain R: Arch Ges Physiol. 1879; 19: 148-167] were used. The animals were allowed to recover from surgery for at least three weeks before the experiments. The animals were kept at a 12 hour light-dark rhythm, housed singly. They received standard food once daily at 11:00 a.m. and tap water ad libitum, and were fasted overnight prior to the experiment, with free access to water. Gastric juice samples were collected throughout the experiment by gravity drainage every 15 min. Acidity in the gastric juice was measured by titration to the end point of pH 7.0. Acid secretion was stimulated by a continuous intravenous infusion of histamine (80 μg/kg/h). Oral or intravenous bolus administration of the test compounds was done 90 minutes after commencement of the histamine infusion. The acid secretion was monitored after the administration. The activity was evaluated by the maximum inhibition relative to the corresponding control value.
On to `Cc1nc2c(OC3CCOc4cc(F)cc(F)c43)cc(C(=O)N(C)C)cc2n1C` (single isomer, unassigned; (-)) [Example 6, (−)-4-[(5,7-Difluoro-3,4-dihydro-2H-chromen-4-yl)oxy]-N,N,1,2-tetramethyl-1H-benzimidazole-6-carboxamide], for which the “inhibitory activity (maximum inhibition of acid secretion relative to control)” value is recorded as “good inhibitory activity”.
